These results are taken from ChEMBL document CHEMBL4814072, “Chemoenzymatic synthesis of 2,6-disubstituted tetrahydropyrans with high σ1 receptor affinity, antitumor and analgesic activity” (Eur J Med Chem, 2021).

In general, inhibition refers to the percentage by which the read-out fell short of the control. As a reminder, the Ki is the equilibrium dissociation constant of an inhibitor or competing ligand from its target. Higher therefore signals lower affinity.

Data set [1] deals with Sigma non-opioid intracellular receptor 1 (Cavia porcellus) (UniProt Q60492). Briefly: Displacement of [3H]-(+)-pentazocine from sigma1 receptor in guinea pig brain membrane at 1 uM measured after 120 mins by solid scintillation counting method. The data set is classed as cell membranes.
Data set [2] concerns the target Sigma intracellular receptor 2 (Rattus norvegicus) (UniProt Q5U3Y7). Briefly: Displacement of [3H]-di-o-tolylguanidine from sigma2 receptor in rat liver membrane at 1 uM by solid scintillation counting method. It is filed as cell membranes. In general terms: Displacement assays read how much labelled ligand stays bound in the presence of the test substance.
Data set [3] deals with Glutamate [NMDA] receptor (Homo sapiens) (UniProt Q05586+Q12879+Q13224+O15399+O60391+Q14957+Q8TCU5). Briefly: Displacement of [3H]-(+)-MK801 from PCP binding site of NMDA receptor (unknown origin). The data set is classed as protein-complex assay. Conditions: dose 1.0 µM.
Another data set deals with Cytochrome P450 3A4 (Homo sapiens, UniProt P08684). Briefly: Inhibition of CYP3A4 (unknown origin) at 1 uM. It is filed as ADME.
For a further data set, the target named is Cytochrome P450 2C9 (Homo sapiens, UniProt P11712). Put plainly: Inhibition of CYP2C9 (unknown origin) at 1 uM. It is filed as ADME.
A further data set has as its target Cytochrome P450 2C19 (Homo sapiens, UniProt P33261). Put plainly: Inhibition of CYP2C19 (unknown origin) at 1 uM. It is filed as ADME.
Another data set deals with Mus musculus. Briefly: Antiallodynic activity in CD-1 mouse assessed as analgesia at 40 mg/kg, sc administered 30 mins prior to capsaicin stimulation and measured after 15 mins by von Frey test (reference value: 97.3 %). The data set is classed as functional. Conditions: time 45 min, 0.75 h.
A further data set deals with T1, Cytochrome P450 1A2 (Homo sapiens, UniProt P05177).
T1 sequence (P05177 whole entry): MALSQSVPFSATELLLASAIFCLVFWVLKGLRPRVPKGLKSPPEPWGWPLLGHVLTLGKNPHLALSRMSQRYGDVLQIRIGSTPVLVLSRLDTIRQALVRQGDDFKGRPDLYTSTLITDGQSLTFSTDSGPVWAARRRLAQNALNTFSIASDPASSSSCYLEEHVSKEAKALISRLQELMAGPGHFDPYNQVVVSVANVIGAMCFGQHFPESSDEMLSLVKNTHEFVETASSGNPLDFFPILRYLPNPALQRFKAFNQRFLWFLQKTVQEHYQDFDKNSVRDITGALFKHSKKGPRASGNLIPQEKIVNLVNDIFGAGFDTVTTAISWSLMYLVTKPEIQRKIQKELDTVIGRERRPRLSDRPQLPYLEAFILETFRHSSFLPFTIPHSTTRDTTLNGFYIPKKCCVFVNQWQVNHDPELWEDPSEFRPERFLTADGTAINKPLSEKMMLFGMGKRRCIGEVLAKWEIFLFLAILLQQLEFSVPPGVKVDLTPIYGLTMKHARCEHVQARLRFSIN
Briefly: Inhibition of CYP1A2 (unknown origin) at 1 uM. It is filed as ADME.

In data set [4] the target is T2, Sigma intracellular receptor 2 (Rattus norvegicus, UniProt Q5U3Y7).
T2 sequence (Q5U3Y7 whole entry): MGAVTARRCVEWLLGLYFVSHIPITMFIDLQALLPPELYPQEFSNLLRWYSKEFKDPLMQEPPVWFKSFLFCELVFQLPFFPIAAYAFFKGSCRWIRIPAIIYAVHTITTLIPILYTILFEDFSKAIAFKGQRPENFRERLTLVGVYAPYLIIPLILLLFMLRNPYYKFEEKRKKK
Briefly: Displacement of [3H]-di-o-tolylguanidine from sigma2 receptor in rat liver membrane by solid scintillation counting method. The data set is classed as cell membranes.

In data set [5] the target is Sodium-dependent dopamine transporter (Homo sapiens) (UniProt Q01959). Put plainly: Inhibition of dopamine transporter (unknown origin).
Data set [6] concerns the target Adrenergic receptor alpha-1 (Homo sapiens) (UniProt P35348+P25100+P35368). Put plainly: Binding affinity to human alpha1 adrenergic receptor. The data set is classed as protein assay.
Data set [7] has as its target Sodium-dependent serotonin transporter (Homo sapiens) (UniProt P31645). Briefly: Inhibition of serotonin transporter (unknown origin).
Data set [8] concerns the target Mu-type opioid receptor (Homo sapiens) (UniProt P35372). Put plainly: Binding affinity to human mu opioid receptor.
For data set [9], the target named is 5-hydroxytryptamine receptor 2B (Homo sapiens) (UniProt P41595). Put plainly: Binding affinity to human 5HT2B receptor.
Data set [10] deals with Sigma non-opioid intracellular receptor 1 (Cavia porcellus, UniProt Q60492).
Data set [11] has as its target Sodium-dependent noradrenaline transporter (Homo sapiens) (UniProt P23975). Put plainly: Inhibition of noradrenaline transporter (unknown origin).
Data set [12] has as its target Delta-type opioid receptor (Homo sapiens) (UniProt P41143). Put plainly: Binding affinity to human delta opioid receptor.
The target of data set [13] is Kappa-type opioid receptor (Homo sapiens) (UniProt P41145). Briefly: Binding affinity to human kappa opioid receptor.
For data set [14], the target named is T3, Alpha-2A adrenergic receptor (Homo sapiens) (UniProt P08913).
T3 sequence (whole entry): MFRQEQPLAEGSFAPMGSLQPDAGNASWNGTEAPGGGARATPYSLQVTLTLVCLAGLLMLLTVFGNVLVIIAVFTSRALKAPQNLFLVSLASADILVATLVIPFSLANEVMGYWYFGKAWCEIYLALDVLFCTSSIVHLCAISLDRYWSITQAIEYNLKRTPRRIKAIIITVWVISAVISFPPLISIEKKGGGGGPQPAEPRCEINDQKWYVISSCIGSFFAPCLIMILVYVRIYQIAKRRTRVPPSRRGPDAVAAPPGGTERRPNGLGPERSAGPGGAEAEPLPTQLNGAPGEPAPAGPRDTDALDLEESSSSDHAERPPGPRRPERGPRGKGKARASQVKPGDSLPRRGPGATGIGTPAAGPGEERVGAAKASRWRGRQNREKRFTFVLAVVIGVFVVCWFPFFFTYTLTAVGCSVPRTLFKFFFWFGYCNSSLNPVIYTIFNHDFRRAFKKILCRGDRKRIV
Briefly: Binding affinity to human alpha2A adrenergic receptor.

Data set [15] concerns the target T4, 5-hydroxytryptamine receptor 1A (Homo sapiens) (UniProt P08908).
T4 sequence (whole entry): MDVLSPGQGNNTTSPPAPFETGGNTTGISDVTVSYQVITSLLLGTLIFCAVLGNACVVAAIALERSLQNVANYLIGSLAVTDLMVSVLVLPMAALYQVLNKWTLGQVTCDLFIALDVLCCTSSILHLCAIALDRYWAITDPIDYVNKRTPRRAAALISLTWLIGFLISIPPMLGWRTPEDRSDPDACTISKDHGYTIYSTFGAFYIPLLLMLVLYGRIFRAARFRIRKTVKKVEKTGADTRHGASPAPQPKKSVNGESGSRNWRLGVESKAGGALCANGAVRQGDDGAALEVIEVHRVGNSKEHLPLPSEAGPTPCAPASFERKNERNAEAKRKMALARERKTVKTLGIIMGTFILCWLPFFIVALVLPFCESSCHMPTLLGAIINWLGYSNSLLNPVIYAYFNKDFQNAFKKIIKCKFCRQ
Put plainly: Binding affinity to human 5HT1A receptor.

For another data set, the system named is DU-145. Put plainly: Antiproliferative activity against androgen-negative human DU145 cells assessed as inhibition of cell growth at 10 uM measured after 72 hrs by SRB assay. It is filed as functional, cell-based. A general note: Sulforhodamine B stains cellular protein and so reports cell mass.
Data set [16] is described as follows: Selectivity ratio of Ki for sigma2 receptor in rat liver membrane to Ki for sigma1 receptor in guinea pig brain membrane. The data set is classed as cell membranes.

The source made the active and inactive calls. The calls are words filed in the database; no cut-off is given here.

Sodium-dependent dopamine transporter (Homo sapiens), sequence (Q01959 whole entry): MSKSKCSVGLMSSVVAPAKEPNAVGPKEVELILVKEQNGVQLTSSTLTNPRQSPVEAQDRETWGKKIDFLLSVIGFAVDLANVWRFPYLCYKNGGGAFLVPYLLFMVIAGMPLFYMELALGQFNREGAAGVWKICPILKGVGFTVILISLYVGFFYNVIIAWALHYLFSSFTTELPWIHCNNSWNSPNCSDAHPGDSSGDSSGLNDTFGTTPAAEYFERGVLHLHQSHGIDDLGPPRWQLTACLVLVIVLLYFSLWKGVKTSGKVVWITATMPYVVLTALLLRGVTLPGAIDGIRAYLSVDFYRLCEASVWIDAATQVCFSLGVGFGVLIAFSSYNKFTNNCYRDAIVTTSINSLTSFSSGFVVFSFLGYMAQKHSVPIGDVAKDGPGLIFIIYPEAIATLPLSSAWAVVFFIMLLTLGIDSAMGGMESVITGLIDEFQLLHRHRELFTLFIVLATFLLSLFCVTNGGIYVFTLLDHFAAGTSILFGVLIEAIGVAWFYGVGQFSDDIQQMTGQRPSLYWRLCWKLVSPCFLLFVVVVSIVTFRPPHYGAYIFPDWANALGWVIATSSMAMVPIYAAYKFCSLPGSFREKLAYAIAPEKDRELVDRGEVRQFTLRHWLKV
Mu-type opioid receptor (Homo sapiens), sequence (P35372 whole entry): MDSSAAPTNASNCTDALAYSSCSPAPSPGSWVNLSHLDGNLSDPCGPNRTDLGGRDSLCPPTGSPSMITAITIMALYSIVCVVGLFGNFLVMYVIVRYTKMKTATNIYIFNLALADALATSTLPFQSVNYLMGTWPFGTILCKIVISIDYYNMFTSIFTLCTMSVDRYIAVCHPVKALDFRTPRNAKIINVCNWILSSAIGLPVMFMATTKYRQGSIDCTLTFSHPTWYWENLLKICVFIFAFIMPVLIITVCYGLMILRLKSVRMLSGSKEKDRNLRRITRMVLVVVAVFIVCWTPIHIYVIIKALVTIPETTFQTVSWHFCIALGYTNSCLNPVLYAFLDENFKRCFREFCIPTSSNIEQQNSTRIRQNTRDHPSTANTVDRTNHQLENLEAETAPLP
Sigma non-opioid intracellular receptor 1, sequence (Q60492 whole entry): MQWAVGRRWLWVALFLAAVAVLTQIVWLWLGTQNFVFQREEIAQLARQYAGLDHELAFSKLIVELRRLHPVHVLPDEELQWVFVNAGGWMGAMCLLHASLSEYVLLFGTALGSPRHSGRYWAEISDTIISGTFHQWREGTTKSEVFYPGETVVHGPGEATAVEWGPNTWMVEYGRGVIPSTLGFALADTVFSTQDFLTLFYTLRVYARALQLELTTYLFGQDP
Sodium-dependent noradrenaline transporter (Homo sapiens), sequence (P23975 whole entry): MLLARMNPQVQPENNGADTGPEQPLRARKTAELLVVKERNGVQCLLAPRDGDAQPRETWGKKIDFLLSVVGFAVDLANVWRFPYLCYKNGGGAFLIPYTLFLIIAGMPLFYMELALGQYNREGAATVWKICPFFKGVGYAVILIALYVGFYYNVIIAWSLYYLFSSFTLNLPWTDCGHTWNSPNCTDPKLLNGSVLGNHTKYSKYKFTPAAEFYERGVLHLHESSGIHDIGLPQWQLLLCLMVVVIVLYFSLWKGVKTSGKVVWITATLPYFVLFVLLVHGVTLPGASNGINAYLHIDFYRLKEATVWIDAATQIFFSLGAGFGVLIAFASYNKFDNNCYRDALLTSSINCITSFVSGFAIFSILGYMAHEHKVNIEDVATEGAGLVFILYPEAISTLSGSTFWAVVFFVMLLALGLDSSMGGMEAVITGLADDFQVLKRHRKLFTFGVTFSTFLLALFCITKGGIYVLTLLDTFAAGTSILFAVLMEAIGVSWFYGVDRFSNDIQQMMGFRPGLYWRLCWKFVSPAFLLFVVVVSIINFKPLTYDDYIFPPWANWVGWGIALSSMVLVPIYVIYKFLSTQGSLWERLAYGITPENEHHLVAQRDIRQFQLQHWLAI
Delta-type opioid receptor (Homo sapiens), sequence (P41143 whole entry): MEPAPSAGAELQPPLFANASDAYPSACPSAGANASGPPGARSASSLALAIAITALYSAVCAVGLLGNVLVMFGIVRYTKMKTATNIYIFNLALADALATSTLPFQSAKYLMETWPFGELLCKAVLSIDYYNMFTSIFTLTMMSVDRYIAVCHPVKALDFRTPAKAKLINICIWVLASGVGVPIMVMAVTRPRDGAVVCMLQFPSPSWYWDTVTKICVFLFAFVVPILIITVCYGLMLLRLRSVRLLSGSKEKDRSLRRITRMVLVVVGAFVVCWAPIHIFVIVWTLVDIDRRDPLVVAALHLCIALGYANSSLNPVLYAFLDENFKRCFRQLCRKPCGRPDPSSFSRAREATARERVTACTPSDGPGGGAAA
Cytochrome P450 3A4, sequence (P08684 whole entry): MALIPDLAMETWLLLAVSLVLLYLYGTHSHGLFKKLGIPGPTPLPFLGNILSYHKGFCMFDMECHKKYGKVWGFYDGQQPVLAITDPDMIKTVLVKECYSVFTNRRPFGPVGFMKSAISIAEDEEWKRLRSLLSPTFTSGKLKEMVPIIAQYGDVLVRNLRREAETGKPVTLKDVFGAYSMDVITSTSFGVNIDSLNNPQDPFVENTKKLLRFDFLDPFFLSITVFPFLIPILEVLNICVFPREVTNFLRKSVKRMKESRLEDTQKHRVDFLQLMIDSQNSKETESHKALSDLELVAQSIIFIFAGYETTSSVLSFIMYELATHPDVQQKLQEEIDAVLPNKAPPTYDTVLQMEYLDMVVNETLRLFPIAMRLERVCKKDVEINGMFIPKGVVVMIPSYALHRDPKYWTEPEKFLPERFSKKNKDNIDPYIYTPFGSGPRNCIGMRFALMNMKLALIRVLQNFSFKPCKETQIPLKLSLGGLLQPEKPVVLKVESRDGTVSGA
Cytochrome P450 2C19, sequence (P33261 whole entry): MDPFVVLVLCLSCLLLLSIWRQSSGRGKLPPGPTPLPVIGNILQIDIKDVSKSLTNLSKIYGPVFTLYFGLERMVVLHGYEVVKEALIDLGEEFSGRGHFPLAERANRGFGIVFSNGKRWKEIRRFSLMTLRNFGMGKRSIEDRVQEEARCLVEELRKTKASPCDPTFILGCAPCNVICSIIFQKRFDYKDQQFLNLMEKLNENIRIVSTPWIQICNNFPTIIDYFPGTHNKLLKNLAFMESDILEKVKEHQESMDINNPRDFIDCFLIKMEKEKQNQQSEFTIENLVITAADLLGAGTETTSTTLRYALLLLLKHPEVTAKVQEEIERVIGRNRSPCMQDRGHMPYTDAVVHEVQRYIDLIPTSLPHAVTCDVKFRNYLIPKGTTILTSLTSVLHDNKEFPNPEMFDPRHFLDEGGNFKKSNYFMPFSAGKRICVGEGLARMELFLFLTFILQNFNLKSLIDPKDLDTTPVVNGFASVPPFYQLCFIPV
Kappa-type opioid receptor (Homo sapiens), sequence (P41145 whole entry): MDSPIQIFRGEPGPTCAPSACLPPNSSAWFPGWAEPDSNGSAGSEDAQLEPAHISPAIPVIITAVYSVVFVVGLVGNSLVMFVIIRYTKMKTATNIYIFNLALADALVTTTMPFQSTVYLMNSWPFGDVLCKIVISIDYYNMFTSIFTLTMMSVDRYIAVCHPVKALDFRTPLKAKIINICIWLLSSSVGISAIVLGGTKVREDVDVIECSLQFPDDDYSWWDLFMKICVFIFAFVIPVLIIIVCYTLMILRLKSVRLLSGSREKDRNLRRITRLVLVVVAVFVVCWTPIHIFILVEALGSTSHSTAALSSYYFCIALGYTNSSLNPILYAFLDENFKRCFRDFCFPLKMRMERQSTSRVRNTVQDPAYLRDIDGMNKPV
Cytochrome P450 2C9, sequence (P11712 whole entry): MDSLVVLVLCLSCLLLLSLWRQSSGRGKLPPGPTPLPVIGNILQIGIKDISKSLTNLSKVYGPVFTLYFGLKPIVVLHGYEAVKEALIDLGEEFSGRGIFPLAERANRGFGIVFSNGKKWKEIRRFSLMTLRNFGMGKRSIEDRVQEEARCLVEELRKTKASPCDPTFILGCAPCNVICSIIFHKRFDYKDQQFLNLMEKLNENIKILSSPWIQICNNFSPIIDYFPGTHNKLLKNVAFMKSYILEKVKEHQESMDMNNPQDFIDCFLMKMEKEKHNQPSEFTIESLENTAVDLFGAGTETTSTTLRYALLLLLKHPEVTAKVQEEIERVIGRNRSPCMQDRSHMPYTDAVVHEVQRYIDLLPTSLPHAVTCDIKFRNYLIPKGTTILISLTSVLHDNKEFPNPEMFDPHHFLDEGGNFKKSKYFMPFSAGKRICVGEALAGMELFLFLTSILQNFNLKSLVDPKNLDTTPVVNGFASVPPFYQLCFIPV
Sodium-dependent serotonin transporter (Homo sapiens), sequence (P31645 whole entry, looked up): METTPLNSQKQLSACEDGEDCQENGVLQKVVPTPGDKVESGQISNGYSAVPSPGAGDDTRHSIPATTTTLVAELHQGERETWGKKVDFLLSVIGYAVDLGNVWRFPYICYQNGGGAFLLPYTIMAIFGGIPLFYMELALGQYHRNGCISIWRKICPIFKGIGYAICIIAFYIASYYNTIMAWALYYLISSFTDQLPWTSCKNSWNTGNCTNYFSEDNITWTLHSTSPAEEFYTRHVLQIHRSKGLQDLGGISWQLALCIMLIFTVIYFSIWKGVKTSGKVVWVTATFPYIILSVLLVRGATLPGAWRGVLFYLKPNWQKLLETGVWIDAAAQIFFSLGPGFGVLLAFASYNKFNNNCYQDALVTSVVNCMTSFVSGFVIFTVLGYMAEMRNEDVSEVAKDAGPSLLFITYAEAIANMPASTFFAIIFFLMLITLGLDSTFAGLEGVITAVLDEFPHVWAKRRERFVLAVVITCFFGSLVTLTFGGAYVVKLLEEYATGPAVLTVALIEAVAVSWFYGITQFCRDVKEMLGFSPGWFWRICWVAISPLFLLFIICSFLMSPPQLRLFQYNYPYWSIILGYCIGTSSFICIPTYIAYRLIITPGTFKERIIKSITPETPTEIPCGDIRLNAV
Sigma non-opioid intracellular receptor 1 (Cavia porcellus), sequence (Q60492 whole entry): as the sequence (Q60492 whole entry) above

As to `NCC[C@H]1CCC[C@@H](c2ccccc2)O1`, the inhibition in [1] came to 4%; in [2] it was 10%; in [3], 43%.

Take `c1ccc(CNCC[C@H]2CCC[C@@H](c3ccccc3)O2)cc1`: the “inhibition (INH)” value on Cytochrome P450 3A4, at Cytochrome P450 2C9, on Cytochrome P450 2C19 and against Cytochrome P450 1A2 was “Not Active” each time. Moreover, the Activity in the data set on Mus musculus came to 55%. Also, the inhibition constant Ki in data set [4] turned out to be 426 nM; in data set [10] it was 5.4 nM. Besides, the inhibition result in data set [5], in data set [7] and in data set [11] was “inactive” in each case. For the same molecule, the result in data set [6], in [8], in data set [9], in data set [12], in data set [13] and in data set [14] was inactive. Moreover, the outcome in data set [15] was inactive. Moreover, the result with DU-145 was Active.

For `NCC[C@@H]1CCC[C@H](c2ccccc2)O1`, the inhibition came out at 9% in [1], 5% in data set [2] and 14% in data set [3].

As for `c1ccc(CCCCNCC[C@H]2CCC[C@@H](c3ccccc3)O2)cc1`, the values for the Ki in data set [4] and in data set [10] were 377 nM and 29 nM, respectively. Further, the inhibition in data set [3] is 42%.

Regarding `c1ccc(CCCCNCC[C@@H]2CCC[C@H](c3ccccc3)O2)cc1`, the results for the Ki in [4] and in data set [10] were 234 nM and 15 nM, respectively. In addition, the inhibition in data set [3] came to 43%.

For `CN(C)CC[C@@H]1CCC[C@H](c2ccccc2)O1`, the figures for the Ki in data set [4] and in data set [10] were 2300 nM and 465 nM, respectively. The inhibition in [3] is 37%.

`c1ccc([C@@H]2CCC[C@H](CCNCC3CCCCC3)O2)cc1`: the “inhibition (INH)” value against Cytochrome P450 3A4, on Cytochrome P450 2C9, on Cytochrome P450 2C19 and against Cytochrome P450 1A2 was “Not Active” each time. In the data set on Mus musculus, the Activity came out at 53%. Besides, the Ki in data set [4] is 36 nM; in data set [10] it was 2.4 nM. Moreover, the inhibition result in data set [5], in data set [7] and in data set [11] was “inactive” in each case. The outcome in data set [6], in data set [8], in [9], in [12], in [13] and in [14] was inactive. Moreover, the outcome in data set [15] was inactive. Moreover, the inhibition in [3] was determined as 7%. In addition, the outcome in the data set with DU-145 was Active.

With `c1ccc([C@@H]2CCC[C@H](CCN3CCN(c4ccccc4)CC3)O2)cc1`, the figures for the Ki in data set [4] and in [10] were 161 nM and 57 nM, respectively.

On to `c1ccc([C@H]2CCC[C@@H](CCNCC3CCCCC3)O2)cc1`, for which the “inhibition (INH)” value at Cytochrome P450 3A4, at Cytochrome P450 2C9, on Cytochrome P450 2C19 and on Cytochrome P450 1A2 was “Not Active” each time. Moreover, the Activity in the data set with Mus musculus was 67%. Moreover, the Ki in data set [4] stood at 57 nM; in data set [10], 0.95 nM. Moreover, the inhibition result in data set [5], in data set [7] and in data set [11] was “inactive” in each case. For the same molecule, the outcome in [6], in [8], in data set [9], in data set [12], in data set [13] and in [14] was inactive. Moreover, the result in [15] was inactive. In data set [3], this molecule came in with an inhibition of 33%. The outcome with DU-145 was Active.

`c1ccc([C@H]2CCC[C@@H](CCN3CCN(c4ccccc4)CC3)O2)cc1`: the Ki stood at 131 nM in data set [4] and 21 nM in data set [10]. Moreover, the inhibition in data set [3] came to 7%.

For the molecule `Cc1cc(OCCN2CCOCC2)nn1-c1ccc2ccccc2c1`, the Activity in the data set on Mus musculus stood at 97%.

As to `c1ccc([C@@H]2CCC[C@H](CCN3CCCC3)O2)cc1`, the values for the inhibitory constant (Ki) in data set [4] and in data set [10] were 170 nM and 31 nM, respectively.

Take `c1ccc([C@H]2CCC[C@@H](CCN3CCCC3)O2)cc1`: the inhibitory constant (Ki) was found to be 115 nM in data set [4] and 60 nM in data set [10].

`CN(C)CC[C@H]1CCC[C@@H](c2ccccc2)O1`: the Ki is 4000 nM in data set [4] and 217 nM in data set [10]. The inhibition in data set [3] amounted to 31%.

With `c1ccc(CNCC[C@@H]2CCC[C@H](c3ccccc3)O2)cc1`, the “inhibition (INH)” value against Cytochrome P450 3A4, against Cytochrome P450 2C9, at Cytochrome P450 2C19 and against Cytochrome P450 1A2 was “Not Active” in each case. Also, the Activity with Mus musculus is recorded as 21%. For the same molecule, the results for the Ki in data set [4] and in data set [10] were 378 nM and 1.6 nM, respectively. Also, the inhibition entry in data set [5], in data set [7] and in data set [11] was “inactive” each time. Besides, the outcome in data set [6], in data set [8], in [9], in data set [12], in data set [13] and in data set [14] was inactive. For the same molecule, the result in data set [15] was inactive. Moreover, the Ratio Ki in data set [16] stood at 236. In addition, the result in the data set on DU-145 was Active.
